The results in this text go back to US8288371B2, “Ortho pyrrolidine, benzyl-substituted heterocycle CCR1 antagonists for autoimmune diseases and inflammation” (Pharmacopeia, LLC, priority 2007, dated 2012).

Some results are limits rather than exact numbers.

The target in this assay is T1, human CCR1 (Homo sapiens, UniProt P32246).
T1 sequence (P32246 1-355): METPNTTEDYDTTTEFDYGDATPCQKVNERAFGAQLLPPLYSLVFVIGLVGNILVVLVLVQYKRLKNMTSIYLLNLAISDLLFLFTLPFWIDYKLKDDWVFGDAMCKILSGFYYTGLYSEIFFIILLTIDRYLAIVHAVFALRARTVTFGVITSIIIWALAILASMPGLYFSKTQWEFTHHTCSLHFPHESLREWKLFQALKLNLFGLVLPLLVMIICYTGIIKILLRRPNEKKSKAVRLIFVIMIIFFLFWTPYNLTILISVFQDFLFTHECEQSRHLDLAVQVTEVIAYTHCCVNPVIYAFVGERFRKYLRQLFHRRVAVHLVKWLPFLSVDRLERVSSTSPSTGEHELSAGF
Kind of assay: CCR1 binding protocol (SPA, [125I]-MIP-1α displacement). The note with it: cell membrane expressing human CCR1, 0.1 nM [125I]-MIP-1α, 4 hours at ambient temperature; read-out: Relative potency (IC50). The essentials:
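Displacement of 0.1 nM [125I]-MIP-1α (final) from membranes expressing human CCR1 was measured by scintillation proximity after 4 h at ambient temperature. Conditions: pH 7.4 Tris buffer with 0.1% BSA and MnCl, and 0.5 μg membrane per well. Compounds were tested as a 10-step ½-log series from a 10 mM DMSO stock to derive IC50.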
The term IC50 denotes the concentration at which inhibition is half-maximal. Regarding `Cc1c(NC(=O)N2CCC[C@@H]2c2nnc(C)n2Cc2ccc(Cl)cc2)cccc1C(=O)O` [Compound 242], the IC50 was 0.05 to 0.5 µM.

For the molecule `Cc1nnc([C@H]2CCCN2C(=O)Cc2ccc(Cl)cc2F)n1Cc1ccc(Cl)cc1` [Compound 507], the IC50 was 0.05 to 0.5 µM.

With `Cc1nnc([C@H]2CCCN2C(=O)C[C@@H](C)c2ccccc2)n1Cc1ccc(Cl)cc1` [Compound 482], the IC50 lay in the range of 0.5 to 5 µM.

Take `Cc1cc(Cl)cc(C)c1N/C(=N/C#N)N1CCC[C@@H]1c1nnc(C)n1Cc1ccc(Cl)cc1` [Compound 198]: the IC50 was less than 0.05 µM.

For `Cc1nnc([C@H]2CC(F)CN2C(=O)NC2C[C@@H]2c2ccccc2)n1Cc1ccc(Cl)cc1` (stereo partly shown) [Compound 576], the IC50 was 0.05 to 0.5 µM.

As to `Cc1nc(C(F)(F)F)ccc1CC(=O)N1C[C@@H](O)C[C@@H]1c1nnc(C)n1Cc1ccc(Cl)cc1` [Compound 619], the IC50 is less than 0.05 µM.

`O=C(NC1CCCOc2cccc(Cl)c21)N1CCC[C@@H]1c1ncnn1Cc1ccc(Cl)cc1` (stereo partly shown) [Compound 87]: the IC50 was 0.05 to 0.5 µM.

With `Cc1nnc([C@H]2CCCN2C(=O)Nc2ccccc2S(C)(=O)=O)n1Cc1ccc(Cl)cc1` [Compound 378], the IC50 is 0.05 to 0.5 µM.

As for `Cc1c(NC(=O)N2CCC[C@@H]2c2nnc(C)n2Cc2ccc(Cl)cc2)cccc1C(=O)N(C)C` [Compound 238], the IC50 was in the range of 0.05 to 0.5 µM.

Consider `Cc1nnc([C@H]2CCCN2C(=O)Nc2cc(-c3ccc(Cl)cc3)nn2C)n1Cc1ccc(Cl)cc1` [Compound 595], for which the IC50 is 0.05 to 0.5 µM.

Regarding `NCc1nnc([C@H]2CCCN2C(=O)N[C@H]2CCOc3cc(C(F)(F)F)ccc32)n1Cc1ccc(Cl)cc1` [Compound 414], the IC50 fell in the range of 0.05 to 0.5 µM.

For the molecule `CC[C@H](NC(=O)N1CCC[C@@H]1c1nc(C)nn1Cc1ccc(Cl)cc1)c1c(C)cc(C(F)(F)F)cc1C` [Compound 97], the IC50 fell in the range of 0.5 to 5 µM.

Turning to `Cc1nnc([C@H]2CCCN2C(=O)Nc2ccc(S(C)(=O)=O)cc2)n1Cc1ccc(Cl)cc1` [Compound 330], the IC50 fell in the range of 0.05 to 0.5 µM.

Regarding `Cc1nnc(C2C3CC3CN2C(=O)N[C@H]2CCOc3cc(C(F)(F)F)ccc32)n1Cc1ccc(Cl)cc1` (stereo partly shown) [Compound 546], the IC50 was in the range of 0.05 to 0.5 µM.

`Cc1cccc(C(N)=O)c1NC(=O)N1CCC[C@@H]1c1nnc(C)n1Cc1ccc(Cl)cc1` [Compound 219]: the IC50 is less than 0.05 µM.

Regarding `CC1(C)CC[C@@H](NC(=O)N2CCC[C@@H]2c2ncnn2Cc2ccc(Cl)cc2)c2ccccc21` [Compound 77], the IC50 lay in the range of 0.05 to 0.5 µM.

`Cc1ccc(NC(=O)N2CCC[C@@H]2c2nnc(C)n2Cc2ccc(Cl)cc2)c(C(N)=O)c1` [Compound 244]: the concentration for half-maximal inhibition (IC50) lay in the range of 0.05 to 0.5 µM.

`Cc1nnc([C@H]2CCCN2C(=O)N[C@H]2CCOc3cc(C(F)(F)F)ccc32)n1[C@H](C)c1ccc(Cl)cc1` [Compound 353]: the IC50 fell in the range of 0.05 to 0.5 µM.

With `Cc1nnc([C@H]2CCCN2C(=O)NC2COCc3c(F)cccc32)n1Cc1ccc(Cl)cc1` (stereo partly shown) [Compound 142], the IC50 lay within 0.05 to 0.5 µM.

Consider `CC[C@@H](NC(=O)N1CCC[C@@H]1c1nnc(C)n1Cc1ccc(Cl)cc1)c1ccccc1` [Compound 285], for which the IC50 is less than 0.05 µM.

`Cc1nc(C(F)(F)F)ccc1NC(=O)N1CCC[C@@H]1c1nnc(C)n1Cc1ccc(F)cc1` [Compound 531]: the IC50 lay within 0.05 to 0.5 µM.

On to `Cc1nnc([C@H]2CCCN2C(=O)N[C@H]2CCOc3c(F)ccc(Cl)c32)n1Cc1ccc(Cl)cc1` [Compound 165], for which the IC50 was 0.05 to 0.5 µM.

As for `Cc1nnc([C@H]2CCCN2C(=O)NC(C)(C)c2ccc(F)cc2)n1Cc1ccc(Cl)cc1` [Compound 275], the IC50 is less than 0.05 µM.

Consider `CNC(=O)c1cc(NC(=O)N2CCC[C@@H]2c2nnc(C)n2Cc2ccc(Cl)cc2)c(C)cc1C` [Compound 380], for which the IC50 is less than 0.05 µM.

Take `Cc1nnc([C@H]2CCCN2C(=O)Nc2cc(C(=O)O)ccc2F)n1Cc1ccc(Cl)cc1` [Compound 282]: the concentration for half-maximal inhibition (IC50) was 0.5 to 5 µM.

For `CC[C@H](NC(=O)N1CCC[C@@H]1c1nnc(C)n1Cc1ccc(Cl)cc1)c1ccc(C(F)(F)F)c(F)c1` [Compound 314], the IC50 was 0.05 to 0.5 µM.

`Cc1nnc([C@H]2CCCN2C(=O)N[C@@H](C)c2ccc(F)cc2)n1Cc1ccc(Cl)cc1` [Compound 218]: the IC50 is less than 0.05 µM.

For `Cc1cc(C)c(S(=O)(=O)N(C)C)cc1NC(=O)N1CCC[C@@H]1c1nnc(C)n1Cc1ccc(Br)cc1` [Compound 559], the IC50 is less than 0.05 µM.

For `COCc1nnc([C@H]2CCCN2C(=O)N[C@H]2CCOc3cc(C(F)(F)F)ccc32)n1Cc1ccc(Cl)cc1` [Compound 459], the IC50 is less than 0.05 µM.

With `Cc1onc(-c2ccc(Cl)cc2)c1NC(=O)N1CCC[C@@H]1c1nnc(C)n1Cc1ccc(Cl)cc1` [Compound 293], the IC50 is less than 0.05 µM.

On to `Cc1nn(C)c(C)c1NC(=O)N1CCC[C@@H]1c1nnc(C)n1Cc1ccc(Cl)cc1` [Compound 320], for which the IC50 is less than 0.05 µM.

Take `CC[C@H](NC(=O)N1CCC[C@@H]1c1nccn1Cc1ccc(Cl)cc1)c1ccc(C(F)(F)F)cc1` [Compound 44]: the IC50 is 0.05 to 0.5 µM.

As to `Cc1nnc([C@H]2CCCN2C(=O)Cc2cc(C(F)(F)F)ccc2Cl)n1Cc1ccc(Cl)cc1` [Compound 511], the IC50 was less than 0.05 µM.

Consider `Cc1nnc([C@H]2CCCN2C(=O)Nc2ccc(F)cc2Cl)n1Cc1ccc(Cl)cc1` [Compound 425], for which the IC50 is less than 0.05 µM.

Turning to `Cc1ccc(C(=O)N(C)C)cc1NC(=O)N1CCC[C@@H]1c1nnc(C)n1Cc1ccc(Cl)cc1` [Compound 208], the IC50 is less than 0.05 µM.

Turning to `Cc1cc(C(F)(F)F)cc(C)c1NC(=O)N1CCC[C@@H]1c1nncn1Cc1ccc(Cl)cc1` [Compound 101], the IC50 is less than 0.05 µM.

Take `Cc1nnc([C@H]2CCCN2C(=O)Nc2ccc(Cl)cc2F)n1Cc1ccc(Cl)nc1` [Compound 364]: the IC50 was in the range of 0.5 to 5 µM.

As for `CC(=O)O[C@@H]1C[C@H](c2ncnn2Cc2ccc(Cl)cc2)N(C(=O)Nc2ccc(Cl)cc2F)C1` [Compound 485], the IC50 lay in the range of 0.5 to 5 µM.

In the case of `Cc1nnc([C@H]2CCCN2C(=O)NCc2ccccc2-c2cc(C(F)(F)F)nn2C)n1Cc1ccc(Cl)cc1` [Compound 622], the IC50 was less than 0.05 µM.

`Cc1nc(C(F)(F)F)ccc1NC(=O)N1CCC[C@@H]1c1nnc(Cl)n1Cc1ccc(Cl)cc1` [Compound 549]: the IC50 was less than 0.05 µM.

`O=C(NCc1ccc(Cl)cc1Cl)N1C[C@H](O)C[C@@H]1c1nncn1Cc1ccc(Cl)cc1` [Compound 475]: the IC50 lay within 0.05 to 0.5 µM.

Turning to `CCc1nnc([C@H]2CCCN2C(=O)Nc2c(C)noc2C)n1Cc1ccc(Cl)cc1` [Compound 582], the IC50 lay within 0.05 to 0.5 µM.

Turning to `O=C(Nc1ccc(Cl)cc1F)N1CCC[C@@H]1c1ncnn1Cc1ccc(Cl)cc1` [Compound 68], the IC50 is 0.05 to 0.5 µM.

As for `Cc1noc(C)c1NC(=O)N1CCC[C@@H]1c1nnc(C)n1Cc1ccc(F)cc1` [Compound 385], the IC50 lay in the range of 0.05 to 0.5 µM.

As for `Cc1nc(C(F)(F)F)ccc1NC(=O)N1CCC[C@@H]1c1nnc(C)n1Cc1ccc(Br)cc1` [Compound 535], the IC50 was less than 0.05 µM.

As to `CC(=O)N1CCC(NC(=O)N2CCC[C@@H]2c2nnc(C)n2Cc2ccc(Cl)cc2)CC1` [Compound 450], the IC50 lay within 0.5 to 5 µM.

Regarding `O=C(N[C@H]1CCCc2ccccc21)N1CCC[C@@H]1c1nnnn1Cc1ccc(Cl)cc1` [Compound 48], the IC50 was less than 0.05 µM.

`Cc1nnc([C@H]2CCCN2C(=O)NCc2ccc(Cl)cc2Cl)n1Cc1ccc(Cl)cc1` [Compound 202]: the 50% inhibitory concentration (IC50) was less than 0.05 µM.

Regarding `Cc1noc(-c2ccccc2)c1NC(=O)N1CCC[C@@H]1c1nnc(CO)n1Cc1ccc(Cl)cc1` [Compound 309], the IC50 is less than 0.05 µM.
